Results reported in patent US8846669B2, “Oxazolidinone derivative and medical composition containing same” (Legochem Biosciences, Inc., priority 2011, dated 2014).
In brackets after ≈: the same amount, converted by molar mass. Read-outs that look alike come from different tables or passages of the source.

Columns and labels:
Test in all cases: In vitro antibacterial activity, broth microdilution MIC90
Assay type in all cases: cell-based
Enterococcus faecalis = details: strain 5, E. faecalis
Procedure: (§1) MIC90 was measured by broth microdilution method based on CLSI standards [reference: Clinical and Laboratory Standards Institute Document. (2000) Methods for Dilution Antimicrobial Susceptibility Test for Bacteria that Grow Aerobically-Fifth Edition: M7-A5. CLSI, Villanova, Pa.].
(§2) Activities of 12 strains including Staphylococcus aureus, Methicillin Resistant Staphylococcus aureus, Staphylococcus epidermidis, Methicillin Resistant Staphylococcus epidermidis, Enterococcus faecalis, Vancomycin Resistant Enterococcus faecalis, Linezolid and Vancomycin Resistant Enterococcus faecalis, Enterococcus faecium, Vancomycin Resistant Enterococcus faecium, Linezolid and Vancomycin Resistant Enterococcus faecium, and Moraxella catarrhalis, were measured, and results are shown in Table 1 below.
(§3) The final concentration of test material in the antibacterial test was from 0.063 μg/mL (minimum) to 128 μg/mL (maximum), and the final concentration of DMSO used as an excipient was 2.5% (V/V). Linezolid represented by Formula B below (manufactured by Pfizer) was used as a control and bacterial activity thereof was compared with those of the test materials.

Enterococcus faecium = details: strain 8, E. faecium
Procedure: as §1, §2, §3

[1] = tested on: Linezolid and Vancomycin Resistant Enterococcus faecalis; details: strain 7, E. faecalis VanA LR
Procedure: as §1, §2, §3

[2] = tested on: Linezolid and Vancomycin Resistant Enterococcus faecium (strain 10); details: strain 10, E. faecium VanA LR
Procedure: as §1, §2, §3

[3] = tested on: Linezolid and Vancomycin Resistant Enterococcus faecium (strain 11); details: strain 11, E. faecium VanA LR
Procedure: as §1, §2, §3

[4] = tested on: Methicillin Resistant Staphylococcus aureus; details: strain 2, S. aureus MR
Procedure: as §1, §2, §3

[5] = tested on: Methicillin Resistant Staphylococcus epidermidis; details: strain 4, S. epidermidis MR
Procedure: as §1, §2, §3

Moraxella catarrhalis = details: strain 12, M. catarrhalis
Procedure: as §1, §2, §3

Staphylococcus aureus = details: strain 1, S. aureus
Procedure: as §1, §2, §3

[6] = tested on: Staphylococcus epidermidis; details: strain 3, S. epidermidis
Procedure: as §1, §2, §3

[7] = tested on: Vancomycin Resistant Enterococcus faecalis; details: strain 6, E. faecalis VanA
Procedure: as §1, §2, §3

[8] = tested on: Vancomycin Resistant Enterococcus faecium; details: strain 9, E. faecium VanA
Procedure: as §1, §2, §3

[9] = Enterococcus faecalis, read-out: MIC90
[10] = Enterococcus faecium, read-out: MIC90
[11] = Staphylococcus aureus, read-out: MIC90
[12] = Staphylococcus epidermidis, read-out: MIC90

Row | SMILES | MIC90 (Enterococcus faecalis) [µg/mL] | MIC90 (Enterococcus faecium) [µg/mL] | MIC90 [1] [µg/mL] | MIC90 [2] [µg/mL] | MIC90 [3] [µg/mL] | MIC90 [4] [µg/mL] | MIC90 [5] [µg/mL] | MIC90 (Moraxella catarrhalis) [µg/mL] | MIC90 (Staphylococcus aureus) [µg/mL] | MIC90 [6] [µg/mL] | MIC90 [7] [µg/mL] | MIC90 [8] [µg/mL] | other results
1 | O=C(C(O)CO)N1CCN(c2ccc(-c3ccc(N4C[C@H](CNc5ccon5)OC4=O)cc3F)cn2)C=N1 (stereo partly drawn) [Compound 43] | 0.5 (≈ 0.951 µM) | 0.25 (≈ 0.476 µM) | 2 (≈ 3.81 µM) | 4 (≈ 7.61 µM) | 4 (≈ 7.61 µM) | 0.5 (≈ 0.951 µM) | 2 (≈ 3.81 µM) | 2 (≈ 3.81 µM) | 0.25 (≈ 0.476 µM) | 1 (≈ 1.9 µM) | 1 (≈ 1.9 µM) | 0.5 (≈ 0.951 µM) | 
2 | Cl.O=C1O[C@@H](COc2ccon2)CN1c1ccc(-c2ccc(N3C=NNCC3)nc2)c(F)c1 [Compound 44] | 4 | 1 | 16 | 16 | 16 | 1 | 4 | >128 | 0.5 | 1 | 4 | 2 | 
3 | CN1CCN(c2ccc(-c3ccc(N4C[C@H](COc5ccon5)OC4=O)cc3F)cn2)C=N1 [Compound 45] | 2 (≈ 4.42 µM) | 0.5 (≈ 1.11 µM) | >128 | >128 | >128 | 1 (≈ 2.21 µM) | 4 (≈ 8.84 µM) | >128 | 0.5 (≈ 1.11 µM) | 1 (≈ 2.21 µM) | 4 (≈ 8.84 µM) | 2 (≈ 4.42 µM) | 
4 | O=C(CO)N1CCN(c2ccc(-c3ccc(N4C[C@H](COc5ccon5)OC4=O)cc3F)cn2)C=N1 [Compound 46] | 2 (≈ 4.03 µM) | 0.5 (≈ 1.01 µM) | 128 (≈ 258 µM) | 128 (≈ 258 µM) | >128 | 0.5 (≈ 1.01 µM) | 32 (≈ 64.5 µM) | >128 | 0.25 (≈ 0.504 µM) | 0.5 (≈ 1.01 µM) | 4 (≈ 8.06 µM) | 2 (≈ 4.03 µM) | 
5 | Cl.NCC(=O)N1CCN(c2ccc(-c3ccc(N4C[C@H](COc5ccon5)OC4=O)cc3F)cn2)C=N1 [Compound 48] | 4 | 1 | 32 | 16 | 32 | 1 | 4 | 32 | 0.5 | 1 | 4 | 2 | 
6 | O=C(C(O)CO)N1CCN(c2ccc(-c3ccc(N4C[C@H](COc5ccon5)OC4=O)cc3F)cn2)C=N1 (stereo partly drawn) [Compound 50] | 2 (≈ 3.8 µM) | 0.5 (≈ 0.95 µM) | 16 (≈ 30.4 µM) | 16 (≈ 30.4 µM) | 32 (≈ 60.8 µM) | 1 (≈ 1.9 µM) | 4 (≈ 7.6 µM) | >128 | 0.5 (≈ 0.95 µM) | 1 (≈ 1.9 µM) | 4 (≈ 7.6 µM) | 2 (≈ 3.8 µM) | 
7 | O=C(O)CN1CCN(c2ccc(-c3ccc(N4C[C@H](COc5ccon5)OC4=O)cc3F)cn2)C=N1 [Compound 51] | 4 (≈ 8.06 µM) | 1 (≈ 2.01 µM) | 16 (≈ 32.2 µM) | 32 (≈ 64.5 µM) | 32 (≈ 64.5 µM) | 1 (≈ 2.01 µM) | 4 (≈ 8.06 µM) | >128 | 0.5 (≈ 1.01 µM) | 1 (≈ 2.01 µM) | 4 (≈ 8.06 µM) | 4 (≈ 8.06 µM) | 
8 | CC(=O)NC[C@H]1CN(c2ccc(-c3ccc(N4CCN(C=O)C=N4)nc3)c(F)c2)C(=O)O1 [Compound 52] |  |  |  |  |  |  |  |  |  |  |  |  | MIC90 (Enterococcus faecalis; [9]): 0.5 µg/mL (≈ 1.14 µM); MIC90 (Enterococcus faecium; [10]): 0.5 µg/mL (≈ 1.14 µM); MIC90 [1, 9]: 1 µg/mL (≈ 2.27 µM); MIC90 [2, 10]: 1 µg/mL (≈ 2.27 µM); MIC90 [3, 10]: 1 µg/mL (≈ 2.27 µM); MIC90 [4, 11]: 0.5 µg/mL (≈ 1.14 µM); MIC90 [5, 12]: 0.5 µg/mL (≈ 1.14 µM); MIC90 (Moraxella catarrhalis; Moraxella catarrhalis, read-out: MIC90): 4 µg/mL (≈ 9.08 µM); MIC90 (Staphylococcus aureus; [11]): 0.25 µg/mL (≈ 0.568 µM); MIC90 [6, 12]: 0.25 µg/mL (≈ 0.568 µM); MIC90 [7, 9]: 0.5 µg/mL (≈ 1.14 µM); MIC90 [8, 10]: 0.5 µg/mL (≈ 1.14 µM)
